Counter-ions that a name gives are not always drawn.
What was measured:
Magensäuresekretion = details: rat; doses higher by a factor of 100 than needed for the broncholytic effect; Arzneimittelforschung 26, 1404-1420 (1976); cited from earlier work
peptische Labmagenulcera [1] = details: dose not given
[2] = Tolerability in the treated calves: side effects, haematology and serum enzymes (random samples); assay type: in vivo, Kälber
Text: (§1) Beispielsweise wurde die Verbindung 1-(4-Amino-3,5,-dichforphenyl)-2-tertbutyfamina-äthanol- hydrochlorid in einer Tagesdosis von 2 mcg/kg Körpergewicht, verteilt auf 2 Dosen, welche dem Futter beigemischt war, 32 bei Beginn der Behandlung ca. 70 Tage alten und ca. 100 kg schweren Kälbern im Vergleich zu einer gleichgroßen Kontrollgruppe fortgesetzt verabreicht.
(§2) Die verabreichte Substanz ist gut verträglich.

[3] = Feed consumption and final weight of the treated calves against the control group; assay type: in vivo, Kälber
Text: as §1
(§3) 14 Tage vor dem Schlachttermin wurde die Behandlung beendet.
Außerdem wies bei einem Futterverbrauch der Versuchsgruppe von 344,3 kg pro Tier bzw. von 343,7 kg pro Tier der Kontrollgruppe die erstere eine um ca. 10 kg höhere Endgewicht pro Tier auf. Bei einem annähernd gleichen Futterverbrauch pro Tier bedeutet dies eine Steigerung der Fleischproduktion von ca. 320 kg in der Versuchsgruppe.

[4] = Acute oral toxicity (LD50); details: mouse, in vivo, Maus, p.o.
Text: as §2

peptische Labmagenulcera [5] = test: Prevention of peptic abomasal ulcers in fattening calves, compound given as feed additive; abomasa dissected after slaughter; assay type: in vivo, Kälber; details: 2 mcg/kg body weight per day in 2 doses mixed into feed; 32 calves, ca. 70 days old and ca. 100 kg at start; treatment ended 14 days before slaughter; control group showed ulcers and haemorrhagic erosions
Text: as §1, §3
Nach der Schlachtung zeigten sich bei der Sektion der Labmägen der Kontrollgruppe Läsionen der Labmagenschleimhaut in folgenden verschiedenen Stadien: • 3 Tiere hatten je ein Ulcus bis zu einem Durchmesser von 20 mm • 4 Tiere hatten mehrere Ulcera mit einem Durchmesser von 2 bis 15 mm
Weitere Tiere wiesen hämorrhagische Erosionen auf den Magenschleimhautfalten auf.

CC(C)(C)NCC(O)c1cc(Cl)c(N)c(Cl)c1 (centres unmarked) [1-(4-Amino-3,5-dichlor-phenyl)-2-tert.butylamino-äthanol]
Hemmwirkung auf die Magensäuresekretion (Magensäuresekretion): eine Hemmwirkung auf die Magensäuresekretion

CN/C(=N/CCSCc1nc[nH]c1C)NC#N [Cimetidine]
Behandlungsversuch (peptische Labmagenulcera [1]): erfolglos

CC(C)(C)NCC(O)c1cc(Cl)c(N)c(Cl)c1 (centres unmarked) [1-(4-Amino-3,5-dichlor-phenyl)-2-tert.butylamino-äthanol-hydrochlorid]
Nebenwirkungen ([2]; calves, 2 mcg/kg per day in feed): keinerlei Nebenwrikungen
hämatologische Untersuchung und Enzyme SGOT, CPK, LDH und GLDH ([2]; random samples, test group versus control group): keine signifikanten Unterschiede
höhere Endgewicht pro Tier ([3]; test group versus control group, 2 mcg/kg per day in feed): ca. 10 kg
Steigerung der Fleischproduktion ([3]; whole test group (32 calves) at nearly equal feed consumption per animal): ca. 320 kg
LD50 [4]: 176 mg/kg
Läsionen der Labmagenschleimhaut (peptische Labmagenulcera [5]): bei keinem Tier der Versuchsgruppe irgendwelche Läsionen der Labmagenschleimhaut feststellbar

Reference: EP0201732A2, “Beta-2-mimetics of the 4-aminophenylethanolamine type for the prevention of peptic ulcers” (BOEHRINGER INGELHEIM VETMEDICA GMBH, priority 1985, dated 1986)
